Data from PubChem BioAssay AID2060897 (Molecular Pharmacology Branch, DTP, NCI, 2025).

System: 966289-007-R4-J1-PDC complex spheroid viability
Assay: Anticancer human tumor 966289-007-R4-J1-PDC patient-derived pancreatic adenocarcinoma cell line growth inhibition [RAS]
Conditions: for IC50: curve of first compound; for viability, T/C: stronger effect = lower value
Procedure, shortened: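 Multi-cell-type spheroids: tumor cells plus HUVEC endothelial cells and mesenchymal stem cells. RAS-pathway inhibitors were combined with targeted agents, each dosed in half-log steps down from clinical Cmax, or from 10 microM when Cmax was unknown.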

[1] = second compound 0.00316 µM, first compound 0.0316 µM
[2] = second compound 0.00316 µM, first compound 0.1 µM
[3] = second compound 0.00316 µM, first compound 0.316 µM
[4] = second compound 0.00316 µM, first compound 1 µM
[5] = second compound 0.00316 µM, first compound 3.16 µM
[6] = second compound 0.00316 µM, first compound 10 µM
[7] = second compound 0.01 µM, first compound 0.0316 µM
[8] = second compound 0.01 µM, first compound 0.1 µM
[9] = second compound 0.01 µM, first compound 0.316 µM
[10] = second compound 0.01 µM, first compound 1 µM
[11] = second compound 0.01 µM, first compound 3.16 µM
[12] = second compound 0.01 µM, first compound 10 µM
[13] = second compound 0.0316 µM, first compound 0.0316 µM
[14] = second compound 0.0316 µM, first compound 0.1 µM
[15] = second compound 0.0316 µM, first compound 0.316 µM
[16] = second compound 0.0316 µM, first compound 1 µM
[17] = second compound 0.0316 µM, first compound 3.16 µM
[18] = second compound 0.0316 µM, first compound 10 µM
[19] = second compound 0.1 µM, first compound 0.0316 µM
[20] = second compound 0.1 µM, first compound 0.1 µM
[21] = second compound 0.1 µM, first compound 0.316 µM
[22] = second compound 0.1 µM, first compound 1 µM
[23] = second compound 0.1 µM, first compound 3.16 µM
[24] = second compound 0.1 µM, first compound 10 µM
[25] = second compound 0.316 µM, first compound 0.0316 µM
[26] = second compound 0.316 µM, first compound 0.1 µM
[27] = second compound 0.316 µM, first compound 0.316 µM
[28] = second compound 0.316 µM, first compound 1 µM
[29] = second compound 0.316 µM, first compound 3.16 µM
[30] = second compound 0.316 µM, first compound 10 µM
[31] = second compound 1 µM, first compound 0.0316 µM
[32] = second compound 1 µM, first compound 0.1 µM
[33] = second compound 1 µM, first compound 0.316 µM
[34] = second compound 1 µM, first compound 1 µM
[35] = second compound 1 µM, first compound 3.16 µM
[36] = second compound 1 µM, first compound 10 µM
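Note: spheroids exposed to agents for one week before readout.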
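Throughout, for viability, T/C: percent viability relative to DMSO vehicle control wells as 100%.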

CC(C)NCC(C(=O)N1CCN(c2ncnc3c2C(C)CC3O)CC1)c1ccc(Cl)cc1 (stereo unspecified) + C=CC(=O)N1CCN(c2nc(OCC3CCCN3C)nc3c(F)c(-c4nc(N)cc(C)c4C(F)(F)F)c(Cl)cc23)C(C)C1
IC50 (second compound 0.00316 µM): 5.59 µM | IC50 (second compound 0.01 µM): 5.17 µM | IC50 (second compound 0.0316 µM): 5.85 µM | IC50 (second compound 0.1 µM): 5.45 µM | IC50 (second compound 0.316 µM): 5.98 µM | IC50 (second compound 1 µM): 5.35 µM | viability, T/C [1]: 99.8% | viability, T/C [2]: 85.1% | viability, T/C [3]: 112% | viability, T/C [4]: 101% | viability, T/C [5]: 70.1% | viability, T/C [6]: 29.5% | viability, T/C [7]: 105% | viability, T/C [8]: 96.7% | viability, T/C [9]: 118% | viability, T/C [10]: 99.5% | viability, T/C [11]: 61.9% | viability, T/C [12]: 34.3% | viability, T/C [13]: 99.7% | viability, T/C [14]: 110% | viability, T/C [15]: 126% | viability, T/C [16]: 104% | viability, T/C [17]: 67.2% | viability, T/C [18]: 35.1% | viability, T/C [19]: 116% | viability, T/C [20]: 104% | viability, T/C [21]: 132% | viability, T/C [22]: 110% | viability, T/C [23]: 63.2% | viability, T/C [24]: 35.4% | viability, T/C [25]: 106% | viability, T/C [26]: 97.1% | viability, T/C [27]: 127% | viability, T/C [28]: 107% | viability, T/C [29]: 67.5% | viability, T/C [30]: 35.9% | viability, T/C [31]: 101% | viability, T/C [32]: 95.8% | viability, T/C [33]: 115% | viability, T/C [34]: 90.1% | viability, T/C [35]: 62.9% | viability, T/C [36]: 35.5%

CC(C)n1nc(-c2ccc3oc(N)nc3c2)c2c(N)ncnc21 + C=CC(=O)N1CCN(c2nc(OCC3CCCN3C)nc3c(F)c(-c4nc(N)cc(C)c4C(F)(F)F)c(Cl)cc23)C(C)C1
IC50 (second compound 0.00316 µM): 0.0363 µM | IC50 (second compound 0.01 µM): 0.0329 µM | IC50 (second compound 0.0316 µM): 0.0437 µM | IC50 (second compound 0.1 µM): 0.0346 µM | IC50 (second compound 0.316 µM): 0.0515 µM | IC50 (second compound 1 µM): 0.0292 µM | viability, T/C (second compound 0.00316 µM, first compound 0.000316 µM): 116% | viability, T/C (second compound 0.00316 µM, first compound 0.001 µM): 83.6% | viability, T/C (second compound 0.00316 µM, first compound 0.00316 µM): 111% | viability, T/C (second compound 0.00316 µM, first compound 0.01 µM): 105% | viability, T/C [1]: 54.5% | viability, T/C [2]: 17.7% | viability, T/C (second compound 0.01 µM, first compound 0.000316 µM): 110% | viability, T/C (second compound 0.01 µM, first compound 0.001 µM): 108% | viability, T/C (second compound 0.01 µM, first compound 0.00316 µM): 112% | viability, T/C (second compound 0.01 µM, first compound 0.01 µM): 94.2% | viability, T/C [7]: 51.5% | viability, T/C [8]: 19.6% | viability, T/C (second compound 0.0316 µM, first compound 0.000316 µM): 123% | viability, T/C (second compound 0.0316 µM, first compound 0.001 µM): 113% | viability, T/C (second compound 0.0316 µM, first compound 0.00316 µM): 121% | viability, T/C (second compound 0.0316 µM, first compound 0.01 µM): 101% | viability, T/C [13]: 62.5% | viability, T/C [14]: 18.9% | viability, T/C (second compound 0.1 µM, first compound 0.000316 µM): 103% | viability, T/C (second compound 0.1 µM, first compound 0.001 µM): 97.3% | viability, T/C (second compound 0.1 µM, first compound 0.00316 µM): 106% | viability, T/C (second compound 0.1 µM, first compound 0.01 µM): 106% | viability, T/C [19]: 52.4% | viability, T/C [20]: 21.1% | viability, T/C (second compound 0.316 µM, first compound 0.000316 µM): 103% | viability, T/C (second compound 0.316 µM, first compound 0.001 µM): 82.2% | viability, T/C (second compound 0.316 µM, first compound 0.00316 µM): 132% | viability, T/C (second compound 0.316 µM, first compound 0.01 µM): 116% | viability, T/C [25]: 68.4% | viability, T/C [26]: 24.9% | viability, T/C (second compound 1 µM, first compound 0.000316 µM): 92.5% | viability, T/C (second compound 1 µM, first compound 0.001 µM): 102% | viability, T/C (second compound 1 µM, first compound 0.00316 µM): 111% | viability, T/C (second compound 1 µM, first compound 0.01 µM): 91.9% | viability, T/C [31]: 47.1% | viability, T/C [32]: 20.3%

CC(Nc1ccc2c(c1)OCCn1cc(N3C(=O)OCC3C(F)F)nc1-2)C(N)=O (stereo unspecified) + C=CC(=O)N1CCN(c2nc(OCC3CCCN3C)nc3c(F)c(-c4nc(N)cc(C)c4C(F)(F)F)c(Cl)cc23)C(C)C1
IC50 (second compound 0.00316 µM): > 10 µM | IC50 (second compound 0.01 µM): > 10 µM | IC50 (second compound 0.0316 µM): > 10 µM | IC50 (second compound 0.1 µM): > 10 µM | IC50 (second compound 0.316 µM): > 10 µM | IC50 (second compound 1 µM): > 10 µM | viability, T/C [1]: 96.2% | viability, T/C [2]: 103% | viability, T/C [3]: 96.3% | viability, T/C [4]: 96.4% | viability, T/C [5]: 101% | viability, T/C [6]: 86.1% | viability, T/C [7]: 89.8% | viability, T/C [8]: 112% | viability, T/C [9]: 115% | viability, T/C [10]: 102% | viability, T/C [11]: 97.4% | viability, T/C [12]: 86.9% | viability, T/C [13]: 99.8% | viability, T/C [14]: 110% | viability, T/C [15]: 114% | viability, T/C [16]: 111% | viability, T/C [17]: 93.2% | viability, T/C [18]: 84.1% | viability, T/C [19]: 95.8% | viability, T/C [20]: 111% | viability, T/C [21]: 115% | viability, T/C [22]: 115% | viability, T/C [23]: 88.3% | viability, T/C [24]: 93.3% | viability, T/C [25]: 96.6% | viability, T/C [26]: 101% | viability, T/C [27]: 117% | viability, T/C [28]: 117% | viability, T/C [29]: 103% | viability, T/C [30]: 98.7% | viability, T/C [31]: 99.8% | viability, T/C [32]: 110% | viability, T/C [33]: 112% | viability, T/C [34]: 87.1% | viability, T/C [35]: 96.5% | viability, T/C [36]: 83.2%
